We go through five compounds from EP0369083A1, “Cardioprotective tocopherol analogs” (MERRELL DOW PHARMACEUTICALS INC., priority 1988, dated 1990).

The nature of data set [1]: Free radical scavenging: inhibition of autoxidation of 1-epinephrine (Misra and Fridovich assay). The following applies: 1-epinephrine 1 x 10⁻⁴M, EDTA 1 x 10⁻⁴M, 30°C, absorbance at 480 nm; read-out: 50% inhibition of the autoxidation rate (ID₅₀). Type of data set: biochemical. As to the method: 2-(3,4-dihydro-6-hydroxy-2,5,7,8-tetramethyl-2H-1-benzopyran-2-yl)ethyl-N,N,N-trimethylammonium bromide, described in Example 1, was evaluated for its ability to reduce superoxide radicals in an assay described by H.P. Misra and J. Fridovich, 1972, J. Biol. Chem. 247, 3170-5. In this assay, the rate of autoxidation of 1-epinephrine (1 x 10⁻⁴M) in the presence of EDTA (1 x 10⁻⁴M) at 30°C is followed spectrophotometrically following the increase of absorbance at 480 mn. […] For comparison, 3,4-dihydro-6-hydroxy-2,5,7,8-tetramethyl-2H-1-benzopyran -2-carboxylic acid (CAS 53188-07-1) gave ID₅₀ = 105 ± 8 µM and d,1-penicillamine (CAS 52-67-5) ID₅₀ = 73 µM in parallel experiments. Misra and Fridovich report that bovine superoxide dismutase gave 50% inhibition at […].

Data set [2] deals with ligation-induced infarcted and reperfused rats. In words: Cardioprotective effects: coronary ligation 60 min and reperfusion 30 min, infarcted area versus area at risk. Type of data set: in vivo. The protocol: 2-(3,4-Dihydro-2,5,7,8-tetramethyl-6-methyl-carbonyloxy-2H-1-benzopyran-2-yl) ethyl-N,N,N-trimethyl-ammonium bromide was evaluated in ligation-induced infarcted and reperfused rats as follows. One of two groups of rats was infused intravenously with a solution of test compound in saline at a rate of 2.3 ml/h (10 mg/kg/h). The control group was infused with saline at the same rate. After 10 min of drug infusion, coronary arteries were ligated surgically for 60 min, ligation was loosened to allow reperfusion for 30 min. The ligation was retied and a dye (Evans Blue) was injected. The animals were sacrificed and the heart ventricles were removed and weighed. The unstained tissue was dissected and weighed; this represents the "area at risk", i.e. the area that was deprived of blood supply by ligation. To determine the infarcted area, the tissue was incubated with 2,3,5-triphenyltetrazolium chloride. Infarcted tissue became light colored and could be dissected and weighed. Thus, for each rat that survived the ligation a measurement of "area at risk" and of "infarcted area" was obtained and the ratio was calculated as given in Tables II and III.

The nature of data set [3]: Affinity for cardiac tissue: radioactivity in heart and blood after intravenous 14C-labelled compound. It counts as in vivo. Also on record: ng equiv/g heart: unit not given here. Particulars: rats, 0.91 mg base/kg intravenous. The protocol:
Following the procedure described in Example 1, but using ¹⁴C-methyl p-toluenesulfonate in place of "cold material", ¹⁴C-labelled 2-(3,4-dihydro-2,5,7,8-tetramethyl-6-methylcarbonyloxy-2H-1-benzopyranan-2-yl)ethyl-N,N,N-tri-¹⁴C-methylammonium p-toluenesulfonate was synthesized. The preparation was diluted with "cold material" to 11.74 µCi/mg base.
24 rats were given 0.91 mg base/kg by intravenous route (by canula into the jugular vein). The animals were sacrificed in groups of 3 at the time periods indicated in Table I. Immediately before sacrifice a 0.5 ml blood sample was taken from an indwelling catheter in the carotid artery. The hearts were removed, blotted and weighed. The samples of tissue and blood were solubiized with Luma Solve (a quaternary ammonium hydroxide preparation) and radioactivity was determined in a scintillation counter.

Where [4] appears, read: treated group, 10 mg/kg/h intravenous infusion, individual rats No. 1-10, 10 mg/kg.

Several values for one entry are separate records, joined by “and”; a condition that tells them apart may be missing. Equal entries are not always repeated.

With `Cc1c(C)c2c(c(C)c1O)CCC(C)(C(=O)O)O2` (stereo not drawn) [3,4-dihydro-6-hydroxy-2,5,7,8-tetramethyl-2H-1-benzopyran-2-carboxylic acid], the IC50 in data set [1] is 105 ± 8 µM.
Still for that read-out and setting: the figure for `Cc1c(C)c2c(c(C)c1O)CCC(C)(CC[N+](C)(C)C)O2` (stereo not drawn) [Example 1, 2-(3,4-Dihydro-6-hydroxy-2,5,7,8-tetramethyl-2H-1-benzo-pyran-2-yl)ethyl-N,N,N-trimethylammonium bromide] is 138 ± 14 µM.
The compound `CC(=O)Oc1c(C)c(C)c2c(c1C)CCC(C)(CC[N+](C)(C)C)O2.[Br-]` (stereo not drawn) [Example 2, 2-(3,4-Dihydro-2,5,7,8-tetramethyl-6-methylcarbonyloxy-2H-1-benzopyran-2-yl)ethyl-N,N,N-trimethylammonium bromide] registered a reduction of infarction in data set [2] (treated (10 mg/kg/h) versus saline control, statistically significant (ANOVA) at p = 0.02) of 42.7%. Further, the “Ratio % (infarcted tissue / tissue at risk), average” value in data set [2] (treated group, 10 mg/kg/h intravenous infusion, average of 10 rats, control group 83.31, 10 mg/kg) was 47.8% and 47.75%. Also, in data set [2] (setting [4]), the “Infarcted tissue,mg” value was 23 mg and 27 mg and 299 mg and 39 mg and 33 mg and 247 mg and 193 mg and 134 mg and 123 mg and 157 mg; the “Ratio % (infarcted tissue / tissue at risk)” value is 45.2% and 9.4% and 97.5% and 15.5% and 18.9% and 64.8% and 62.1% and 64.5% and 31.2% and 68.4%.
Turning to `CC(=O)Oc1c(C)c(C)c2c(c1C)CCC(C)(CC[N+](C)(C)C)O2.Cc1ccc(S(=O)(=O)[O-])cc1` (stereo not drawn) [Example 9, 2-(3,4-Dihydro-2,5,7,8-tetramethyl-6-methylcarbonyloxy-2H-1-benzopyran-2-yl)ethyl-N,N,N-trimethylammonium p-toluenesulfonate], the Ratio heart/blood in data set [3] (5 min after administration) was 3.05 ± 1.46; in data set [3] (15 min after administration), 6.90 ± 8.34; in data set [3] (30 min after administration), 17.33 ± 5.42; in data set [3] (1 hour after administration), 20.09 ± 2.54; in data set [3] (2 hours after administration), 21.90 ± 3.56; in data set [3] (4 hours after administration (maximum), listed as 2-(3,4-dihydro-2,5,7,8-tetramethyl-6-methylcarbonyloxy-2H-1-benzopyranan-2-yl)et, p-toluenesulfonate) it was 27.15 and 27.15 ± 4.30. Moreover, the Ratio heart/blood in data set [3] (6 hours after administration) came out at 18.62 ± 2.77; in data set [3] (8 hours after administration), 15.12 ± 2.69. For the same compound, the ng equiv/g heart in data set [3] (5 min after administration) is 1.591 ± 0.22; in data set [3] (15 min after administration), 1.728 ± 0.422; in data set [3] (30 min after administration), 1.905 ± 0.278; in data set [3] (1 hour after administration) it was 2.092 ± 0.406; in data set [3] (2 hours after administration), 1.395 ± 0.042; in data set [3] (4 hours after administration) it was 1.253 ± 0.248. The ng equiv/g heart in data set [3] (6 hours after administration) was found to be 0.863 ± 0.067; in data set [3] (8 hours after administration), 0.652 ± 0.116. In addition, the ng equiv/ml blood in data set [3] (5 min after administration) stood at 0.434 ± 0.351 ng equiv/ml blood; in data set [3] (15 min after administration), 0.590 ± 0.295 ng equiv/ml blood; in data set [3] (30 min after administration) it was 0.124 ± 0.032 ng equiv/ml blood; in data set [3] (1 hour after administration), 0.096 ± 0.008 ng equiv/ml blood; in data set [3] (2 hours after administration), 0.086 ± 0.041 ng equiv/ml blood; in data set [3] (4 hours after administration) it was 0.054 ± 0.013 ng equiv/ml blood. Moreover, the ng equiv/ml blood is listed as 0.048 ± 0.007 ng equiv/ml blood in data set [3] (6 hours after administration) and 0.048 ± 0.012 ng equiv/ml blood in data set [3] (8 hours after administration). In data set [3] (after 8 h), the “concentration of drug in heart tissue” value is recorded as 0.65 µg equiv/g. In addition, in data set [3] (conclusion in words), the “affinity for heart tissue” value is listed as “marked affinity for heart tissue”.
`CC(C)(S)[C@@H](N)C(=O)O` [d,1-penicillamine]: in data set [1], the IC50 was 73 µM.
